# Test results published in patent US9102932B2, “Orthogonal translation components for the in vivo incorporation of unnatural amino acids” (The Scripps Research Institute, priority 2004, dated 2015).
# B1: clone 3H11 (protein)
# chain: MEEQYRPEEIESKVQLHWDEKRTFEVTEDESKEKYYCLSWSPYPSGRLHMGHVRNYTIGDVIARYQRMLGKNVLQPIGWDAFGLPAEGAAVKNNTAPAPWTYDNIAYMKNQLKMLGFGYDWSRELATCTPEYYRWEQKFFTELYKKGLVYKKTSAVNWCPNDQTVLANEQVIDGCCWRCDTKVERKEIPQWFIKITAYADELLNDLDKLDHWPDTVKTMQRNWIGRSEGVEITFNVNDYDNTLTVYTTRPDTFMGCTYLAVAAGHPLAQKAAENNPELAAFIDECRNTKVAEAEMATMEKKGVDTGFKAVHPLTGEEIPVWAANFVLMEYGTGAVMAVPGHDQRDYEFASKYGLNIKPVILAADGSEPDLSQQALTEKGVLFNSGEFNGLDHEAAFNAIADKLTAMGVGERKVNYRLRDWGVSRQRYWGAPIPMVTLEDGTVMPTPDDQLPVILPEDVVMDGITSPIKADPEWAKTTVNGMPALRETDTFDTFMESCWIYARYTCPQYKEGMLDSEAANYWLPVDIAIGGIEHAIMGLLYFRFFHKLMRDAGMVNSDEPAKQLLCQGMVLADAFYYVGENGERNWVSPVDAIVERDEKGRIVKAKDAAGHELVYTGMSKMSKSKNNGIDPQVMVERYGADTVRLFMMFASPADMTLEWQESGVEGANRFLKRVWKLVYEHTAKGDVAALNVDALTENQKALRRDVHKTIAKVTDDIGRRQTFNTAIAAIMELMNKLAKAPTDGEQDRALMQEALLAVVRMLNPFTPHICFTLWQELKGEGDIDNAPWPVADEKAMVEDSTLVVVQVNGKVRAKITVPVDATEEQVRERAGQEHLVAKYLDGVTVRKVIYVPGKLLNLVVG
# modifications: o-nitrobenzylcysteine aminoacyl-tRNA synthetase
# Key:
# [1] = Photodecaging of O-(2-nitrobenzyl)-L-tyrosine by irradiation at 365 nm, LC/MS; format: physicochemical
# Protocol: FIG. 9 provides concentration curve assays illustrating the experimentally observed photodecaging (photoactivation) of the caged tyrosine molecule O-(2-nitrobenzyl)-L-tyrosine. Photodecaging of O-(2-nitrobenzyl)-L-tyrosine was illustrated by irradiation of a 0.2 mM amino acid solution in water using a handheld UV lamp (365 nm at 10 mm distance). Aliquots were taken at specific time points and analyzed by LC/MS. The concentrations of O-(2-nitrobenzyl)-L-tyrosine (squares) and the corresponding decaged species (circles) are shown.
# Irradiation of O-(2-nitrobenzyl)-L-tyrosine (synthesized from L-tyrosine as described in Miller et al., Neuron 1998, 20, 619) at 365 nm induces cleavage of the benzylic CO-bond and rapid formation of the decaged amino acid (t1/2=4 min, see supporting information), as illustrated schematically in FIG. 8.
# Photodecaging of O-(2-nitrobenzyl)-L-tyrosine can be experimentally observed, as illustrated in the experimental results shown in FIG. 9. As shown in this figure, the photodecaging of O-(2-nitrobenzyl)-L-tyrosine was studied by irradiation of a 0.2 mM solution in water (one well of a six-well plate) using a handheld UV lamp (365 nm at 10 mm distance). Aliquots were taken at specific time points and analyzed by LC/MS. 50% decaging was achieved after approximately four minutes.
# [2] = tested on: Z domain protein gene with amber codon at seventh position; assay: Expression of amber mutant Z domain protein with unnatural amino acid, SDS-PAGE and MALDI-TOF MS; format: cell-based, E. coli
# Protocol: To confirm that the observed phenotype is caused by the site-specific incorporation of p-ethylthiocarbonyl-L-phenylalanine by the mutRNACUA-mutTyrRS pair, an amber codon was substituted for the seventh position (Tyr) in the gene encoding the Z domain protein (Nilsson et al., Protein Eng. 1987, 1, 107-113) fused to a C-terminal His6 tag. Protein was expressed in the presence or absence of 1 mM p-ethylthiocarbonyl-L-phenylalanine and purified by Ni-NTA chromatography. […]
# Additional evidence for the site specific incorporation of p-ethylthiocarbonyl-L-phenylalanine was obtained by matrix-assisted laser desorption/ionization time-of-flight mass spectrometry (MALDI-TOF MS). In addition to the observation of an experimental average mass of 8006 Da for the intact Tyr p-ethylthiocarbonyl-L-phenylalanine protein (MTheoretical=8002 Da, see, FIG. 16), a minor peak corresponding to the mutant protein without the first methionine moiety in acetylated form (MExperimental=7913 Da vs. MTheoretical=7913 Da) and a major peak corresponding to the mutant protein without the first methionine moiety (MExperimental=7871 Da vs. MTheoretical=7871 Da) were also detected (FIG. 16). Another major peak of 7828 Da was present that corresponds to Z domain protein containing a free carboxylic acid group instead of a thioester moiety at position 7, which has a calculated mass of 7827 Da in its protonated form. […]
# [3] = tested on: human superoxide dismutase bearing amber codon at position 33 (hSOD-33TAG-His6); assay: Expression of hSOD-33TAG-His6 in yeast with mutant E. coli leucyl-tRNA synthetases, SDS-PAGE; format: cell-based; conditions: yeast host cells
# Source text: To increase hydrolytic activity towards leucine, residues T252 and V338 in the E. coli synthetase editing domain were exchanged to alanine by Quikchange mutagenesis in order to enlarge the binding pocket (see, FIG. 6A). […] High selectivity of this mutant was further confirmed by MALDI TOF MS of hSOD-33TAG-His6.
# To evolve a more efficient oNBS translation system, the selected clone 3H11 synthetase was diversified by error prone PCR, again using three different mutagenicities, to introduce one, two or five mutations per gene, yielding an overall diversity of 1×10^7 clones. The positions in the leucyl-tRNA-synthetase enzyme that were targeted for randomization were M40, L41, Y499, Y527 and H537. The protocols used herein follow the general methodologies described in the art, e.g., Wu et al., Journal of the American Chemical Society 126:14306-14307 (2004); and International Application No. PCT/US 2005/034002, filed Sep. 21, 2005, by Deiters et al.
# Sequencing of the G2-6 clone identified five additional mutations throughout the enzyme in comparison to the initial 3H11 synthetase starting material (positions S31G, T247A, T248S, M617I and V673A). Additional mutations (caused during library construction) found in all clones throughout the library were also observed as follows: H67R, N196T, R262A and S497C. […]
molecule,measurement,setting,value
N[C@@H](Cc1ccc(OCc2ccccc2[N+](=O)[O-])cc1)C(=O)O [O-(2-nitrobenzyl)-L-tyrosine],Decaging,"[1]; after approximately four minutes, 0.2 mM solution in water, handheld UV lamp 365 nm at 10 mm distance",50%
same,half-life at 0.2 mM,"[1]; solution in water under UV irradiation (365 nm), irradiation at 365 nm, read-out: t1/2 of formation of the decaged amino acid",4 min
CC(=O)CC(=O)c1ccc(C[C@H](N)C(=O)O)cc1 [p-(3-oxobutanoyl)-L-phenylalanine],Fidelity for the incorporation,"[2]; MALDI-TOF MS, signal-to-noise ratio >400, evolved mutRNACUA^Tyr-mutTyrRS pair",> 99%
same,Incorporation efficiency compared to tyrosine,"[2]; Z domain protein, seventh position, 1 mM unnatural amino acid, SDS-PAGE",around 30%
B1,oNBS incorporation efficiency compared to an oNBC amino acid (in words),[3],twofold reduced efficiency
